In patent US8946238B2, “Pyrazolo[1,5-A]pyrimidines as antiviral agents” (Gilead Sciences, Inc., priority 2011, dated 2015) one finds inhibition data, which are given here for 46 molecules.

This experiment has as its system RSV strain A2. Put plainly: RSV antiviral cytoprotection assay in Hep2 cells (RSV-induced cytopathic effect, Cell TiterGlo). It is filed as cell-based, Respiratory Syncytial Virus (RSV). The settings on record: human respiratory syncytial virus, HEp-2, 0.5 μM compound; RSV A2-infected Hep2 cells; % inhibition calculated from 4-parameter dose response curve, normalized to 0% and 100%; read-out: Percent inhibition at 0.5 μM. As for the experimental part: Antiviral activity against RSV was determined using an in vitro cytoprotection assay in Hep2 cells. […] The method used was similar to methods previously described in published literature (Chapman et al., Antimicrob Agents Chemother. 2007, 51(9):3346-53.)
Hep2 cells were obtained from ATCC (Manassas, VI) and maintained in MEM media supplemented with 10% fetal bovine serum and penicillin/streptomycin. Cells were passaged twice a week and kept at subconfluent stage. Commercial stock of RSV strain A2 (Advanced Biotechnologies, Columbia, Md.) was titered before compound testing to determine the appropriate dilution of the virus stock that generated desirable cytopathic effect in Hep2 cells.
For antiviral tests, Hep2 cells were seeded into 96-well plates 24 hours before the assay at a density of 3,000 cells/well. On a separate 96 well plate, compounds to be tested were serially diluted in cell culture media. Eight concentrations in 3-fold serial dilution increments were prepared for each tested compound and 100 uL/well of each dilution was transferred in duplicate onto plates with seeded Hep2 cells. Subsequently, appropriate dilution of virus stock previously determined by titration was prepared in cell culture media and 100 uL/well was added to test plates containing cells and serially diluted compounds. Each plate included three wells of infected untreated cells and three wells of uninfected cells that served as 0% and 100% virus inhibition control, respectively. Following the infection with RSV, testing plates were incubated for 4 days in a tissue culture incubator. After the incubation, RSV-induced cytopathic effect was determined using a Cell TiterGlo reagent (Promega, Madison, Wis.) followed by a luminescence read-out. The percentage inhibition was calculated for each tested concentration relative to the 0% and 100% inhibition controls and the EC50 value for each compound was determined by non-linear regression as a concentration inhibiting the RSV-induced cytopathic effect by 50%. Ribavirin (purchased from Sigma, St. Louis, Mo.) was used as a positive control for antiviral activity.
Compounds were also tested for antiviral activity against RSV in Hep2 cells using a 384 well format. Compounds were diluted in DMSO using a 10-step serial dilution in 3-fold increments via automation in 4 adjacent replicates each. Eight compounds were tested per dilution plate. 0.4 uL of diluted compounds were then stamped via Biomek into 384-well plates (Nunc 142761 or 164730 w/lid 264616) containing 20 μL of media (Mediatech Inc. MEM supplemented with Glutamine, 10% FBS and Pen/Strep). DMSO and a suitable positive control compound, such as 80 μM GS-329467 or 10 μM 427346 was used for the 100% and 0% cell killing controls, respectively.
Hep2 cells (1.0×10^5 cells/ml) were prepared as above in batch to at least 40 mls excess of the number of sample plates (8 mls cell mix per plate) and infected with vendor supplied (ABI) RSV strain A2 to arrive at an MOI of 1:1000 (virus:cell #) or 1:3000 (vol virus: cell vol). Immediately after addition of virus, the RSV infected Hep2 cell suspension was added to each stamped 384-well plate at 20 μl per well using a uFlow dispenser, giving a final volume of 40 μL/well, each with 2000 infected cells. The plates were then incubated for 5 days at 37° C. and 5% CO2. Following incubation, the plates were equilibrated to room temperature in a biosafety cabinet hood for 1.5 hrs and 40 μL of Cell-Titer Glo viability reagent (Promega) was added to each well via uFlow. Following a10-20 minute incubation, the plates were read using an EnVision or Victor Luminescence plate reader (Perkin-Elmer). The data was then uploaded and analyzed on the Bioinformatics portal under the RSV Cell Infectivity and 8-plate EC50-Hep2-384 or 8-plate EC50-Hep2-Envision protocols. […]
Broadly, the inhibition is the relative decrease from the control value, in per cent. For the molecule `Cc1noc(-c2ccccc2C(=O)N2CCCC[C@H]2c2cc3nc(N4CC[C@H](N)C4)c(C)cn3n2)n1` [Compound 47], the inhibition at 0.5 µM was 90%. As for `Cc1cn2nc([C@@H]3CCCCN3C(=O)c3cc(F)cc4c3OCOC4)cc2nc1N1CC[C@H](N)C1` [Compound 48], the inhibition at 0.5 µM is 100%.

For `Cc1ccc(C(=O)N2CCCC[C@H]2c2cc3nc(N4CC[C@H](N)C4)c(C)cn3n2)c(Cl)c1` [Compound 49], the inhibition at 0.5 µM was 99%. The figure for `Cc1cn2nc([C@@H]3CCCCN3C(=O)c3ccc4cccnc4n3)cc2nc1N1CC[C@H](N)C1` [Compound 50] is 15%; for `COc1cc2c(cc1C(=O)N1CCCC[C@H]1c1cc3nc(N4CC[C@H](N)C4)c(C)cn3n1)CCC2` [Compound 51] it is 100%; for `Cc1cn2nc([C@@H]3CCCCN3C(=O)c3ccc4cccc(F)c4n3)cc2nc1N1CC[C@H](N)C1` [Compound 52] it is 71%. The figure for `Cc1cn2nc([C@@H]3CCCCN3C(=O)c3[nH]c4c(C)ccc(C)c4c3C)cc2nc1N1CC[C@H](N)C1` [Compound 53] is 25%. On to `Cc1cn2nc([C@@H]3CCCCN3C(=O)c3cccc4ccnn34)cc2nc1N1CC[C@H](N)C1` [Compound 54], for which the inhibition at 0.5 µM was 100%. Then `Cc1cc(C)n2c(C(=O)N3CCCC[C@H]3c3cc4nc(N5CC[C@H](N)C5)c(C)cn4n3)nnc2n1` [Compound 55], with 5%. As for `Cc1cn2nc([C@@H]3CCCCN3C(=O)c3c(Cl)nc4ccccn34)cc2nc1N1CC[C@H](N)C1` [Compound 56], the inhibition at 0.5 µM is 84%. Then `Cc1cn2nc([C@@H]3CCCCN3C(=O)c3cc4c(OC(F)F)cccc4[nH]3)cc2nc1N1CC[C@H](N)C1` [Compound 57], with 13%. Consider `Cc1ccc(S(C)(=O)=O)cc1C(=O)N1CCCC[C@H]1c1cc2nc(N3CC[C@H](N)C3)c(C)cn2n1` [Compound 58], for which the inhibition at 0.5 µM was 61%. The figure for `Cc1ccc(S(N)(=O)=O)cc1C(=O)N1CCCC[C@H]1c1cc2nc(N3CC[C@H](N)C3)c(C)cn2n1` [Compound 59] is 52%; for `Cc1cn2nc([C@@H]3CCCCN3C(=O)c3cccc4c3CCCN4)cc2nc1N1CC[C@H](N)C1` [Compound 60] it is 100%; for `Cc1cn2nc([C@@H]3CCCCN3C(=O)c3cccc4c3OCO4)cc2nc1N1CC[C@H](N)C1` [Compound 61] it is 100%. Then `Cc1cn2nc([C@@H]3CCCCN3C(=O)c3cc(F)cc4nc(C)c(C)nc34)cc2nc1N1CC[C@H](N)C1` [Compound 62], with 11%; and `Cc1cn2nc([C@@H]3CCCCN3C(=O)c3cc(Cl)ccc3OC(C)C)cc2nc1N1CC[C@H](N)C1` [Compound 63], with 100%; and `Cc1cc(C(=O)N2CCCC[C@H]2c2cc3nc(N4CC[C@H](N)C4)c(C)cn3n2)c2[nH]ncc2c1` [Compound 64], with 100%. The figure for `Cc1cn2nc([C@@H]3CCCCN3C(=O)c3cccc4c3OCC(=O)N4)cc2nc1N1CC[C@H](N)C1` [Compound 65] is 97%.

As for `Cc1cn2nc([C@@H]3CCCCN3C(=O)c3ccccc3OC3CCCC3)cc2nc1N1CC[C@H](N)C1` [Compound 66], the inhibition at 0.5 µM was 95%. Consider `CCS(=O)(=O)c1ccc(F)c(C(=O)N2CCCC[C@H]2c2cc3nc(N4CC[C@H](N)C4)c(C)cn3n2)c1` [Compound 67], for which the inhibition at 0.5 µM was 21%. Take `Cc1cn2nc([C@@H]3CCCCN3C(=O)c3ccc4ncccc4c3)cc2nc1N1CC[C@H](N)C1` [Compound 68]: the inhibition at 0.5 µM is 37%. As for `Cc1cn2nc([C@@H]3CCCCN3C(=O)c3ccccc3Cl)cc2nc1N1CC[C@H](N)C1` [Compound 69], the inhibition at 0.5 µM is 100%. In the case of `Cc1cn2nc([C@@H]3CCCCN3C(=O)c3cccc(CO)n3)cc2nc1N1CC[C@H](N)C1` [Compound 70], the inhibition at 0.5 µM was 56%. `Cc1cn2nc([C@@H]3CCCCN3C(=O)c3ncccc3F)cc2nc1N1CC[C@H](N)C1` [Compound 71]: the inhibition at 0.5 µM was 98%. The figure for `Cc1cn2nc([C@@H]3CCCCN3C(=O)c3ccc(F)c(F)c3C)cc2nc1N1CC[C@H](N)C1` [Compound 72] is 100%; for `Cc1cn2nc([C@@H]3CCCCN3C(=O)c3ccc(F)cc3F)cc2nc1N1CC[C@H](N)C1` [Compound 73] it is 99%; for `Cc1cn2nc([C@@H]3CCCCN3C(=O)c3nc(Cl)ccc3Cl)cc2nc1N1CC[C@H](N)C1` [Compound 74] it is 100%. As to `Cc1cc(F)c(F)cc1C(=O)N1CCCC[C@H]1c1cc2nc(N3CC[C@H](N)C3)c(C)cn2n1` [Compound 75], the inhibition at 0.5 µM was 100%. Regarding `Cc1cn2nc([C@@H]3CCCCN3C(=O)c3ncccc3Br)cc2nc1N1CC[C@H](N)C1` [Compound 76], the inhibition at 0.5 µM is 99%. The figure for `Cc1cc(F)ccc1C(=O)N1CCCC[C@H]1c1cc2nc(N3CC[C@H](N)C3)c(C)cn2n1` [Compound 77] is 100%; for `Cc1ccc(F)cc1C(=O)N1CCCC[C@H]1c1cc2nc(N3CC[C@H](N)C3)c(C)cn2n1` [Compound 78] it is 100%. Then `Cc1cn2nc([C@@H]3CCCCN3C(=O)c3c(F)cccc3F)cc2nc1N1CC[C@H](N)C1` [Compound 79], with 100%. Then `Cc1cn2nc([C@@H]3CCCCN3C(=O)c3cccc(-c4ccccc4)n3)cc2nc1N1CC[C@H](N)C1` [Compound 80], with 14%; and `Cc1cn2nc([C@@H]3CCCCN3C(=O)c3cccc(F)n3)cc2nc1N1CC[C@H](N)C1` [Compound 81], with 96%; and `Cc1cn2nc([C@@H]3CCCCN3C(=O)c3c(F)cccc3Cl)cc2nc1N1CC[C@H](N)C1` [Compound 82], with 100%. With `Cc1cn2nc([C@@H]3CCCCN3C(=O)c3cc(Cl)ccn3)cc2nc1N1CC[C@H](N)C1` [Compound 83], the inhibition at 0.5 µM was 99%. Regarding `COc1cccc(C(=O)N2CCCC[C@H]2c2cc3nc(N4CC[C@H](N)C4)c(C)cn3n2)c1C` [Compound 84], the inhibition at 0.5 µM was 100%. Then `COc1cc(C)c(C(=O)N2CCCC[C@H]2c2cc3nc(N4CC[C@H](N)C4)c(C)cn3n2)cc1C` [Compound 85], with 100%; and `Cc1cn2nc([C@@H]3CCCCN3C(=O)c3cc(C(F)(F)F)ccn3)cc2nc1N1CC[C@H](N)C1` [Compound 86], with 80%.

For the molecule `Cc1cn2nc([C@@H]3CCCCN3C(=O)c3cccc(C)c3C)cc2nc1N1CC[C@H](N)C1` [Compound 87], the inhibition at 0.5 µM was 100%.

With `Cc1cn2nc([C@@H]3CCCCN3C(=O)c3c(C)cccc3C)cc2nc1N1CC[C@H](N)C1` [Compound 88], the inhibition at 0.5 µM is 100%. Then `Cc1ccc(Cl)c(C(=O)N2CCCC[C@H]2c2cc3nc(N4CC[C@H](N)C4)c(C)cn3n2)c1` [Compound 89], with 100%. Then `Cc1ccc(Br)c(C(=O)N2CCCC[C@H]2c2cc3nc(N4CC[C@H](N)C4)c(C)cn3n2)c1` [Compound 90], with 100%; and `COc1cc(C)ccc1C(=O)N1CCCC[C@H]1c1cc2nc(N3CC[C@H](N)C3)c(C)cn2n1` [Compound 92], with 100%. Then `Cc1cn2nc([C@@H]3CCCCN3C(=O)c3ccc(Cl)cn3)cc2nc1N1CC[C@H](N)C1` [Compound 93], with 44%.
